The values below come from ChEMBL document CHEMBL5038569, “Targeting RECQL5 Functions, by a Small Molecule, Selectively Kills Breast Cancer in Vitro and in Vivo” (J Med Chem, 2021).

The test system of assay [1] is MCF7. The assay is described as follows: Cytotoxicity against RECQL5 knock out human MCF7 cells assessed as cell growth inhibition measured after 72 hrs by MTT assay. In kind it is functional. The conditions noted are these: dose 6-50 µM. Background: Formazan colour is commonly taken as a measure of viable cells.
Assay [2] has as its system MCF7. The assay can be described thus: Cytotoxicity against human MCF7 cells expressing wild type RECQL5 assessed as cell growth inhibition measured after 72 hrs by MTT assay. In kind it is functional. The settings on record: dose 6-50 µM.
The species named for assay [3] is Homo sapiens. The assay is described as follows: Inhibition of full length His-tagged human RECQL5 expressed in Escherichia coli incubated for 15 mins by fluorescence based assay.

Active and inactive are the calls of the source. The rule behind the calls is not given here.

`O=C(Nc1cc(C(F)(F)F)cc(C(F)(F)F)c1)N[C@@H](Cc1ccccc1)c1nnc(SCc2ccccc2)o1`: the Activity result in assay [1] and in assay [2] was “Dose-Dependent Effect” in each case. Besides, the inhibition result in assay [3] was “inactive”.
For the compound `COc1ccc(NC(=O)N[C@@H](c2ccccc2)c2nnc(SCc3ccccc3)o2)cc1`, the outcome in assay [1] and in assay [2] was inactive.
`Cc1ccc(NC(=O)N[C@@H](c2ccccc2)c2nnc(SCc3ccccc3)o2)cc1`: the Activity result in assay [1] and in assay [2] was “Dose-Dependent Effect” in each case.
In the case of `COc1ccc(NC(=O)N[C@@H](Cc2ccccc2)c2nnc(SCc3ccccc3)o2)cc1`, the Activity result in assay [1] and in assay [2] was “Dose-Dependent Effect” each time.
For `Cc1ccc(NC(=O)N[C@@H](Cc2ccccc2)c2nnc(SCc3ccccc3)o2)cc1`, the Activity entry in assay [1] and in assay [2] was “Dose-Dependent Effect” throughout.
On to `O=C(NCc1nnc(SCc2ccccc2)o1)Nc1cc(C(F)(F)F)cc(C(F)(F)F)c1`, for which the Activity result in assay [1] and in assay [2] was “Dose-Dependent Effect” each time.
Take `O=C(Nc1ccc([N+](=O)[O-])cc1)N[C@@H](Cc1ccccc1)c1nnc(SCc2ccccc2)o1`: the Activity entry in assay [1] and in assay [2] was “Dose-Dependent Effect” throughout.
Regarding `O=C(Nc1ccc([N+](=O)[O-])cc1)N[C@@H](c1ccccc1)c1nnc(SCc2ccccc2)o1`, the Activity result in assay [1] and in assay [2] was “Dose-Dependent Effect” throughout.
